The values that follow come from PMC10578352, “Identification of a Protein Arginine Methyltransferase 7 (PRMT7)/Protein Arginine Methyltransferase 9 (PRMT9) Inhibitor” (Journal of Medicinal Chemistry, 2023).

SMILES strings stand for the structures. pIC50: −log10 of the molar value.

In general, pIC50 refers to the negative decadic logarithm of the IC50, by convention in mol/L.

For one data set, the system named is MCF-7 cells. Also on record: method as in PMID 35482954. The note with it: cited from earlier work.
Data set [1] has as its system PRMT4-catalyzed arginine methylation in MCF-7 cells. Also on record: method as in PMID 35482954. As to conditions: cited from earlier work.
A further data set addresses T1, human recombinant PRMT9 (Homo sapiens, UniProt Q6P2P2).
T1 construct: human recombinant PRMT9 (2–845; N-terminal FLAG-tag, C-terminal His6-tag); FLAG (N); His6 (C); purchased BPS BioScience 79124
T1 sequence (Q6P2P2 2-845): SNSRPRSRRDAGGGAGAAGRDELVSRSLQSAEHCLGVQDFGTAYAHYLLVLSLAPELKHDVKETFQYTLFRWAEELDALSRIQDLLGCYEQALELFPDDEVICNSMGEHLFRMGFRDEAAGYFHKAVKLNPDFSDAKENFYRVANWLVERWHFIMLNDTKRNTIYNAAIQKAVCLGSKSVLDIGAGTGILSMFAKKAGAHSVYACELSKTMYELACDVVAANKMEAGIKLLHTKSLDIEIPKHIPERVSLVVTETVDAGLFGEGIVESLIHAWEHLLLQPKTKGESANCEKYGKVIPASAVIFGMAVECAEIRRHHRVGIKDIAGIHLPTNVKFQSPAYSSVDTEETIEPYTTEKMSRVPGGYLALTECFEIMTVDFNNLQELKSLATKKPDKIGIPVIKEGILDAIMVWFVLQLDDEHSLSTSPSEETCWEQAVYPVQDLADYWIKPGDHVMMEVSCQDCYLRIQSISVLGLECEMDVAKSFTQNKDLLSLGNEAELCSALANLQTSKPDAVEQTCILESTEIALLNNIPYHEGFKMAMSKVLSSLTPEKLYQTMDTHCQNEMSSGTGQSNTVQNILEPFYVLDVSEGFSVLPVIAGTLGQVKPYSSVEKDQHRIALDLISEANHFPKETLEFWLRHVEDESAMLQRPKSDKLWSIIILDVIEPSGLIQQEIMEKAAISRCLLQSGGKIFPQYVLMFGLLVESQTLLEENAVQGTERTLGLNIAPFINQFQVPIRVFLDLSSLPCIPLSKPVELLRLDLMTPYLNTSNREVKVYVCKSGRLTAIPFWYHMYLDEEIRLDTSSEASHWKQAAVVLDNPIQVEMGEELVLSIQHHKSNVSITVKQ
Nature of the data set: AlphaLISA PRMT9 activity assay (modified BPS kit, biotinylated SF3B2 peptide). The note with it: for pIC50: PRMT9 0.105 μM, biotinylated SF3B2 (500–519) peptide 100 nM, SAM 25 μM. The data set is classed as biochemical. The procedure: Accordingly, all the enzymatic inhibition data were obtained by performing the assays in these optimized conditions.
The reaction was incubated for 60 min. Afterward, in each well, 5 μL of a 1:100 dilution of Primary antibody 28 (BPS BioScience, #52140Z3) in Detection buffer (BPS BioScience) and 5 μL of anti-Rabbit acceptor beads (PerkinElmer, #AL104C) were added to obtain a final concentration of 20 μg/mL.
For each incubation step, the OptiPlate was sealed with a protective foil to prevent evaporation and contamination. Donor and Acceptor beads were added to the mixture in subdued light.
The 100% activity (positive control) was reached using vehicle (DMSO), while 0% activity (negative control) was obtained without the protein. Data were analyzed by using Excel and Prism software. Values obtained for each compound are mean ± SD determined for three separate experiments.

On the set-up of data set [2]: method as in PMID 35482954. The note with it: cited from earlier work.
The next data set concerns the target T2, PRMT7 (Homo sapiens, UniProt Q9NVM4).
T2 construct: PRMT7 (residues 2–692, C-terminus); with an N-terminal His-tag; His (N); purchased Reaction Biology Corporation
T2 sequence (Q9NVM4 2-692): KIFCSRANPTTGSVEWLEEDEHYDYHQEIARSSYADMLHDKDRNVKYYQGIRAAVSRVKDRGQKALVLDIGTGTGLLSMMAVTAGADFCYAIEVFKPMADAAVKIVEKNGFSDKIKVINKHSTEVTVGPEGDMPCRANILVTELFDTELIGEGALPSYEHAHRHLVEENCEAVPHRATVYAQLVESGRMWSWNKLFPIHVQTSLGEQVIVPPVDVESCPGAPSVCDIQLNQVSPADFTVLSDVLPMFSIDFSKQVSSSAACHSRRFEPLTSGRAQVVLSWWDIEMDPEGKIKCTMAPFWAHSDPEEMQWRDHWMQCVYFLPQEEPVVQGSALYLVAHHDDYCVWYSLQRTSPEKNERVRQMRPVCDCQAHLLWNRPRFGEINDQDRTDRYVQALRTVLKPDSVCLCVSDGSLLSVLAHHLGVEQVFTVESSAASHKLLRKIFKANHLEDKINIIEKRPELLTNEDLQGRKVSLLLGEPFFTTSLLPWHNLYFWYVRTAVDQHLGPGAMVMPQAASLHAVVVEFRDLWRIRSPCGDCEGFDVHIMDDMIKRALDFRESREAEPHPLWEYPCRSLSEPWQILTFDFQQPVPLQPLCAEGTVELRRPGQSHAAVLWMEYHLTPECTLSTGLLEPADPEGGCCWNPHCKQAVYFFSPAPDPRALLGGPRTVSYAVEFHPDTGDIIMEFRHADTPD
Nature of the data set: HotSpot radioisotope-based filter assay, PRMT7. The note with it: 5 μM GST-GAR, 3H-SAM 1 μM. The data set is classed as biochemical. The procedure:
(§1) Then, ^3H-SAM (final concentration of 1 μM) was delivered into the reaction mixture to initiate the reaction. After incubation for 60 min at 30 °C, the reaction mixture was delivered to filter-paper for detection (as assessed by scintillation). Data were analyzed using Excel and GraphPad Prism 6.0 software (GraphPad Software Inc., San Diego, CA) for IC50 curve fits using sigmoidal dose vs response - variable slope (four parameters) equations.

In a further data set the target is T3, PRMT3 (Homo sapiens, UniProt O60678).
T3 construct: PRMT3 (residues 2–531, C-terminus); with an N-terminal His-tag; His (N); purchased Reaction Biology Corporation
Briefly: HotSpot radioisotope-based filter assay, PRMT3. The data set is classed as biochemical. The note with it: 5 μM histone H4, 3H-SAM 1 μM. As for the experimental part: as §1

The target in another data set is T4, PRMT6 (Homo sapiens, UniProt Q96LA8).
T4 construct: PRMT6 (residues 2–375, C-terminus); with an N-terminal GST-tag; GST (N); purchased Reaction Biology Corporation
Briefly: HotSpot radioisotope-based filter assay, PRMT6. The data set is classed as biochemical. As to conditions: 5 μM GST-GAR, 3H-SAM 1 μM. The procedure:
as §1

In another data set the target is T5, PRMT4 (Homo sapiens, UniProt Q86X55).
T5 construct: PRMT4 (residues 2–608, C-terminus); with an N-terminal GST-tag; GST (N); purchased Reaction Biology Corporation
T5 sequence (Q86X55 2-608): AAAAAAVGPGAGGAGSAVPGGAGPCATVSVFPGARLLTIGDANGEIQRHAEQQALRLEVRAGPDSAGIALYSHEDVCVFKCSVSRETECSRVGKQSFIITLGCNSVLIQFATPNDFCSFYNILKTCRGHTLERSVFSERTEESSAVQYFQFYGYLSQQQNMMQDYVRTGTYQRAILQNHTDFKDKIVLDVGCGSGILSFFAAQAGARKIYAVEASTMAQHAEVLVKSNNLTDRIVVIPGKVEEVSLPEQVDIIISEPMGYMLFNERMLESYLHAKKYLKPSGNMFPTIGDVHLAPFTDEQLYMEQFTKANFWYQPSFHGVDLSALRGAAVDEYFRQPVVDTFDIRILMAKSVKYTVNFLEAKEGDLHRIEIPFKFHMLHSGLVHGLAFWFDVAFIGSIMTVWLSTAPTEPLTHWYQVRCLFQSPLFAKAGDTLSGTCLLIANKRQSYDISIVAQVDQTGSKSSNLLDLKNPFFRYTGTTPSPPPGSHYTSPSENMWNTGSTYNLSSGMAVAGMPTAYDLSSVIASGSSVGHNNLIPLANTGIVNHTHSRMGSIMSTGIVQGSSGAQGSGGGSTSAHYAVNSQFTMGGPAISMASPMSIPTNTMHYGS
Nature of the data set: HotSpot radioisotope-based filter assay, PRMT4. The data set is classed as biochemical. The note with it: 5 μM histone H3, 3H-SAM 1 μM. As for the experimental part: as §1

The next data set concerns the target T6, PRMT5/MEP50 complex (Homo sapiens, UniProt O14744).
T6 construct: residues PRMT5 2–637, C-terminus, and MEP50 2–342, C-terminus; FLAG (N); purchased Reaction Biology Corporation
Nature of the data set: HotSpot radioisotope-based filter assay, PRMT5. As to conditions: 5 μM histone H2A, 3H-SAM 1 μM. The data set is classed as biochemical. As for the experimental part: as §1

In another data set the target is T7, PRMT8 (Homo sapiens, UniProt Q9NR22).
T7 construct: (residues 61–394, C-terminus); with C- and N-terminal His-tags; His (N); His (C); purchased Reaction Biology Corporation
Nature of the data set: HotSpot radioisotope-based filter assay, PRMT8. The data set is classed as biochemical. The note with it: 5 μM histone H4, 3H-SAM 1 μM. The procedure: as §1

The target of the next data set is T8, PRMT1 (Homo sapiens, UniProt Q99873).
T8 construct: PRMT1 (residues 2–371, C-terminus); with an N-terminal GST-tag; GST (N); purchased Reaction Biology Corporation
Briefly: HotSpot radioisotope-based filter assay, PRMT1. The data set is classed as biochemical. As to conditions: 5 μM histone H4, 3H-SAM 1 μM. As for the experimental part: as §1

T4 sequence (Q96LA8 2-375): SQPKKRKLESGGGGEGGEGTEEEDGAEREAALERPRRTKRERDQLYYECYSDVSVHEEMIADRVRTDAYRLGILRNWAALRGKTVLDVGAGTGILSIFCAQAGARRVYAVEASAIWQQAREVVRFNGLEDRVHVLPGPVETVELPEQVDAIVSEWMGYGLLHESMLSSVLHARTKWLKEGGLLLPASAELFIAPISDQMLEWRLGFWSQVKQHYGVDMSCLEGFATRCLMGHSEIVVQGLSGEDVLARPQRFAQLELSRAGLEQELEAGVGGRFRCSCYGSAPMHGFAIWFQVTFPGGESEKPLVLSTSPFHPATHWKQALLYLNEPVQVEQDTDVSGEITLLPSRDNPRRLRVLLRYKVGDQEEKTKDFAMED
T7 sequence (Q9NR22 61-394): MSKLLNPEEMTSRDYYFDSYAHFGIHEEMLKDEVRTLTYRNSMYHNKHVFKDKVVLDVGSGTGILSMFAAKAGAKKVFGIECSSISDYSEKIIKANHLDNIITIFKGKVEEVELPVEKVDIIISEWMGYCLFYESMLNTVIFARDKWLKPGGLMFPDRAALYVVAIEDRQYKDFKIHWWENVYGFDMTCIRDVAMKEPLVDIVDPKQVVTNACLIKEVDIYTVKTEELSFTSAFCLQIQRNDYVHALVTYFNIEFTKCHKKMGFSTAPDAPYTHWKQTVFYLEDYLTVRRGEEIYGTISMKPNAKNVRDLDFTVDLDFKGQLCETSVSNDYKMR
T6 sequence (O14744 2-637): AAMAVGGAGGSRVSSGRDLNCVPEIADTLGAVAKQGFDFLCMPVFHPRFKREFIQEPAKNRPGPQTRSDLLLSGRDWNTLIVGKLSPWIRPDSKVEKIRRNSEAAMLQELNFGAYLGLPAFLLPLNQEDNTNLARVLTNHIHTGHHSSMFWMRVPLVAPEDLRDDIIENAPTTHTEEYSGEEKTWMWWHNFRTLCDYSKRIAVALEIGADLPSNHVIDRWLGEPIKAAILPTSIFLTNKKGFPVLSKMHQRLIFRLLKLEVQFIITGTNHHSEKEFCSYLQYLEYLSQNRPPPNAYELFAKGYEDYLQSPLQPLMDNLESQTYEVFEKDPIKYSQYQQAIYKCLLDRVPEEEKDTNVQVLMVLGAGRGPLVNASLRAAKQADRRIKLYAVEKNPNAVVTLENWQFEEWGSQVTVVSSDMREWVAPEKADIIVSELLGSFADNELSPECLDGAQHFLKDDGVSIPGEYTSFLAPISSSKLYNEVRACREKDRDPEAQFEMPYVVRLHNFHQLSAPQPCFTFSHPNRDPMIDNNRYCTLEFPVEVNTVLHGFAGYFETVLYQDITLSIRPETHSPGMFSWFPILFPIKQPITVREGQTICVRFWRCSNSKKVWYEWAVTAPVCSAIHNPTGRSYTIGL
T6 sequence (Q9BQA1 2-342 partner limits assumed): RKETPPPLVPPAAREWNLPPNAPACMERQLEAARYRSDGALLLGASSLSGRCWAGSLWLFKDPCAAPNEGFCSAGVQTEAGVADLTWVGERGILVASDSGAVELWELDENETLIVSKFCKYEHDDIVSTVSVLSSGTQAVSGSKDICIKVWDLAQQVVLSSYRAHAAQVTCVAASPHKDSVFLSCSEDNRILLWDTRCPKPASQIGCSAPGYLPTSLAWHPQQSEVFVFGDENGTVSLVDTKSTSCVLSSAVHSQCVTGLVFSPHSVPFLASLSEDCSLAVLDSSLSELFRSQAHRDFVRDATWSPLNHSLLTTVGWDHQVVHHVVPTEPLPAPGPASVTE
T8 sequence (Q99873 2-371): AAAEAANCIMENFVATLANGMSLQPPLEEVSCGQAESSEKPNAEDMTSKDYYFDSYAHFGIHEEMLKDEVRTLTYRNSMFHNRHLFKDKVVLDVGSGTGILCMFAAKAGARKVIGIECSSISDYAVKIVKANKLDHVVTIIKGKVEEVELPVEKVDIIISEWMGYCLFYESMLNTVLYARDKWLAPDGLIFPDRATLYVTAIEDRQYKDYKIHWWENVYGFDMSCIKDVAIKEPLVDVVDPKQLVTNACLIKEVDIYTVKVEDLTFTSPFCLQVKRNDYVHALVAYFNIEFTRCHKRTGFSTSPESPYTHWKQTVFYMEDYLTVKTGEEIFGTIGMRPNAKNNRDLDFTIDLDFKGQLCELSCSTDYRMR
T3 sequence (O60678 2-531): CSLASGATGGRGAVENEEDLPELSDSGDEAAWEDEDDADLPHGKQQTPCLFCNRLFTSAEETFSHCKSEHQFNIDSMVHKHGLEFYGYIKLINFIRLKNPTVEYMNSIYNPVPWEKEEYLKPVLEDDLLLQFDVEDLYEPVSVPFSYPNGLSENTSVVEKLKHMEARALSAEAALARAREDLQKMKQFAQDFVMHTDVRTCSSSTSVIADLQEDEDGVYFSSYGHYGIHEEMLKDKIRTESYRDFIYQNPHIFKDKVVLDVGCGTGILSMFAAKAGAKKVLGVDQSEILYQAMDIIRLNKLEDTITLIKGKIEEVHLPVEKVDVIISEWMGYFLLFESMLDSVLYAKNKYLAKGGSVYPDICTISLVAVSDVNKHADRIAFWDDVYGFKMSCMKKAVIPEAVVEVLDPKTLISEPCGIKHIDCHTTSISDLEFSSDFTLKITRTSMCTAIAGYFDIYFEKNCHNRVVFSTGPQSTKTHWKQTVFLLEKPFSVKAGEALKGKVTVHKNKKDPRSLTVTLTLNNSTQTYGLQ

For the compound `COC(=O)c1cc(O)c2cc(NC(=O)NCCCCNC(=N)NC/C=C/[C@H]3O[C@@H](n4cnc5c(N)ncnc54)[C@H](O)[C@@H]3O)ccc2c1` [1h], in the data set on MCF-7 cells, the proliferation result is “marked reduction”. Also, the “PRMT4-catalyzed arginine methylation levels” value in [1] is recorded as “evident reduction”. The negative logarithm of the IC50 (pIC50) at human recombinant PRMT9 was 5.03. For the same compound, the cell permeability entry in data set [2] is recorded as “low”.
For the compound `COC(=O)c1cc(O)c2cc(NC(=O)NCCNC(=N)NC[C@H]3O[C@@H](n4cnc5c(N)ncnc54)[C@H](O)[C@@H]3O)ccc2c1` [1i, Methyl 6-(3-(2-(3-(((2R,3S,4R,5R)-5-(6-Amino-9H-purin-9-yl)-3,4-dihydroxytetrahydrofuran-2-yl)methyl)guanidino)ethyl)ureido)-4-hydroxy-2-naphthoate], the pIC50 against PRMT7 was 6.27; against PRMT3, under 4.00; against PRMT6, 4.15; against PRMT4, 4.64; against PRMT5/MEP50 complex, 5.03; at human recombinant PRMT9, 5.61. Moreover, the pIC50 is 4.38 on PRMT8 and under 4.00 against PRMT1. In addition, the “reduction in potency against PRMT9 compared to 1a” value on human recombinant PRMT9 (AlphaLISA IC50 values) turned out to be 3 fold.
